Legend:
[1] = test system: male Wistar rats; experiment: In vivo toxicity study: hepatic and renal serum biomarkers; details: in vivo toxicity study groups, 6 weeks, mean ± SEM, n = 5
[2] = test system: MMP-9; experiment: Hepatic MMP-9 mRNA expression; type: in vivo, rat; details: CCl4 6 weeks, then 6-week treatment 20 mg/kg/day
[3] = test system: TIMP-1; experiment: Hepatic TIMP-1 protein levels; type: in vivo, rat; details: tissue homogenates; CCl4 6 weeks, then 6-week treatment 20 mg/kg/day
[4] = test system: rats with CCl4-induced liver fibrosis; experiment: Serum liver biomarkers in CCl4-induced liver fibrosis; type: in vivo, rat; details: CCl4 6 weeks, then 6-week treatment 20 mg/kg/day
[5] = test system: male Wistar rats; experiment: In vivo toxicity study: daily inspection and body weight; details: daily inspection, body weight twice weekly, 6 weeks
[6] = test system: MDA; experiment: Lipid peroxides; type: in vivo, rat; details: liver homogenates; CCl4 6 weeks, then 6-week treatment 20 mg/kg/day
[7] = test system: TGF-β1; experiment: Hepatic TGF-β1 mRNA expression; type: in vivo, rat; details: CCl4 6 weeks, then 6-week treatment 20 mg/kg/day; vs model group
[8] = test system: rats with CCl4-induced liver fibrosis; experiment: Liver histology; type: in vivo, rat; details: CCl4 6 weeks, then 6-week treatment 20 mg/kg/day
[9] = test system: GSH; experiment: Reduced glutathione; type: in vivo, rat; details: liver homogenates; CCl4 6 weeks, then 6-week treatment 20 mg/kg/day
[10] = test system: α-SMA; experiment: Immunohistochemical staining of α-SMA in CCl4-induced liver fibrosis; type: in vivo, rat; details: CCl4 6 weeks, then 6-week treatment 20 mg/kg/day; vs model group
[11] = test system: rat livers; type: in vivo; details: toxicity groups
[12] = test system: TNF-α; experiment: Liver TNF-α content; type: in vivo, rat; details: liver homogenates; CCl4 6 weeks, then 6-week treatment 20 mg/kg/day

Cc1ccc(-c2cc(C(F)(F)F)nn2-c2ccc(S(N)(=O)=O)cc2)cc1 [celecoxib] gave an ALP [1] of 123 ± 6.59 U/L, an ALT [1] of 45.66 ± 0.88 U/L and an AST [1] of 127.5 ± 14 U/L. For the same molecule, the Albumin [1] was 3.68 ± 0.04 g/dL, the Creatinine [1] was 0.43 ± 0.06 mg/dL and the “Total Bilirubin” value [1] was 0.045 ± 0.006 mg/dL. For the same molecule, the “Hepatic MMP-9 mRNA expression” value [2] was “reversed that upregulation”, the “Hepatic TIMP-1 protein levels” value [3] was “caused a decrease in TIMP-1 levels” and the “Serum ALP levels” value ([4]; normal range 30 to 130 U/L) was “lied within the normal range”. The “Serum AST and ALT levels” value ([4]; vs model group) was “significant reduction in liver enzyme levels”, the “Total serum bilirubin (TBIL) levels” value ([4]; vs model group) was “significant decrease in the total serum bilirubin levels” and the “Signs of stress, toxicity or weight loss” value [5] was “did not show any signs of stress, toxicity or weight loss”. For the same molecule, the “MDA content (lipid peroxides)” value [6] was “significant lowering effect on MDA levels”, the “Hepatic TGF-β1 mRNA expression” value [7] was “significant reduction in the expression of TGF- β1” and the “Liver architecture (H&E)” value [8] was “evident fibrolytic effects”. For the same molecule, the “Fibrosis score (0–4)” value ([8]; Masson's trichrome) was “significant decrease in fibrosis scores”, the GSH content [9] was “significant rise in GSH levels” and the “α-SMA % change (in words)” value [10] was “significant decline of the α-SMA %”. For the same molecule, the “Gross examination of rat livers” value [11] was “normal smooth livers with no inflammation or fatty depositions” and the “Liver TNF-α content” value [12] was “significantly superior effect in lowering TNF-α levels”.

— PMC12087607 (Drug Design, Development and Therapy, 2025)
